Reference: patent publication US9981916B2 (Genentech, Inc., priority 2013, dated 2018)

Biological target: T1, RORc ligand binding domain (Homo sapiens, UniProt P51449)
T1 construct: host or cells: E. coli
T1 sequence (P51449 269-508 limits assumed): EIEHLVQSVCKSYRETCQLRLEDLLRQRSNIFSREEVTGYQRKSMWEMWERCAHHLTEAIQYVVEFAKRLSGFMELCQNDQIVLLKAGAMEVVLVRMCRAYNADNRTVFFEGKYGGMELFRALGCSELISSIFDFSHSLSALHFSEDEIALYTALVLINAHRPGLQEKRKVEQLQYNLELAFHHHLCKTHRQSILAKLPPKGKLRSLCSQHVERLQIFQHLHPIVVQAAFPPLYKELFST
Assay: In vitro RORc ligand binding assay (25-[3H]hydroxycholesterol displacement, filter binding)
Details: 6 nM 25-[3H]hydroxycholesterol, 0.6 ug/mL RORc receptor, 3 h at 25° C.
Method in brief: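 Compounds in 5% DMSO, either dose-response or screened at 1 and 10 uM, competed with 6 nM 25-[3H]hydroxycholesterol for 0.6 ug/mL RORc over 3 h at 25° C (HEPES pH 7.4, NaCl, MgCl2, DTT, BSA buffer). Bound tracer was filter-harvested and counted; nonspecific binding came from 1 uM 25-hydroxycholesterol.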

| SMILES | IC50 [nM] |
| --- | --- |
| CC1(C)[C@@H]2CC[C@@]1(C(=O)N1CC3(CCCO3)C1)c1nnc(-c3c(F)cccc3F)cc12 [Example 221, ((5S,8S)-3-(2,6-difluorophenyl)-9,9-dimethyl-5,6,7,8-tetrahydro-5,8-methanocinnolin-8-yl)(5-oxa-2-azaspiro[3.4]octan-2-yl)methanone] | 612 |
| CC1(C)[C@H]2CC[C@]1(CNCCO)c1nnc(-c3c(F)cccc3F)cc12 [Example 297, 2-((((5R,8S)-3-(2,6-difluorophenyl)-9,9-dimethyl-5,6,7,8-tetrahydro-5,8-methanocinnolin-8-yl)methyl)amino)ethanol] | 2420 |
| CC1(C)[C@@H]2CC[C@@]1(C(=O)N1CCC[C@@H]1CO)c1nnc(-c3c(F)cccc3F)cc12 [Example 204, ((5S,8S)-3-(2,6-difluorophenyl)-9,9-dimethyl-5,6,7,8-tetrahydro-5,8-methanocinnolin-8-yl) ((R)-2-(hydroxymethyl)pyrrolidin-1-yl)methanone] | 600 |
| CC1(C)[C@H]2C[C@@H](F)[C@]1(C)c1nnc(-c3ccccc3F)cc12 [Example 31, (5R,7R,8S)-7-fluoro-3-(2-fluorophenyl)-8,9,9-trimethyl-5,6,7,8-tetrahydro-5,8-methanocinnoline] | 2130 |
| COCCOC[C@]12CC[C@H](c3cc(-c4ccccc4F)nnc31)C2(C)C [Example 26, (5S,8S)-3-(2-fluorophenyl)-8-[(2-methoxyethoxy)methyl]-9,9-dimethyl-5,6,7,8-tetrahydro-5,8-methanocinnoline] | 789 |
| COCC(=O)N[C@@]12CC[C@@H](c3cc(-c4ccccc4F)nnc31)C2(C)C [Example 83, N-[(5R,8R)-3-(2-fluorophenyl)-9,9-dimethyl-6,7-dihydro-5,8-methanocinnolin-8(5H)-yl]-2-methoxyacetamide] | 1170 |
| CNC(=O)C1CCN(C(=O)[C@]23CC[C@H](c4cc(-c5c(F)cccc5F)nnc42)C3(C)C)C1 (stereo partly drawn) [Example 244, 1-((5S,8S)-3-(2,6-difluorophenyl)-9,9-dimethyl-5,6,7,8-tetrahydro-5,8-methanocinnoline-8-carbonyl)-N-methylpyrrolidine-3-carboxamide] | 904 |
| CC1(C)[C@@H]2CC[C@@]1(C(=O)N1CC[C@H](CO)C1)c1nnc(-c3c(F)cccc3F)cc12 [Example 216, ((5S,8S)-3-(2,6-difluorophenyl)-9,9-dimethyl-5,6,7,8-tetrahydro-5,8-methanocinnolin-8-yl)((S)-3-(hydroxymethyl)pyrrolidin-1-yl)methanone] | 830 |
| CC1(C)[C@H]2CC[C@]1(c1nnc(N)o1)c1nnc(-c3c(F)cccc3F)cc12 [Example 255, 5-((5R,8R)-3-(2,6-difluorophenyl)-9,9-dimethyl-5,6,7,8-tetrahydro-5,8-methanocinnolin-8-yl)-1,3,4-oxadiazol-2-amine] | 822 |
| CC1(O)CN(C(=O)[C@]23CC[C@H](c4cc(-c5c(F)cccc5F)nnc42)C3(C)C)C1 [Example 92, [(5S,8S)-3-(2,6-difluorophenyl)-9,9-dimethyl-6,7-dihydro-5,8-methanocinnolin-8(5H)-yl](3-hydroxy-3-methylazetidin-1-yl)methanone] | 2990 |
| COC[C@@H]1CCCN1C(=O)[C@]12CC[C@H](c3cc(-c4c(F)cccc4F)nnc31)C2(C)C [Example 246, ((5S,8S)-3-(2,6-difluorophenyl)-9,9-dimethyl-5,6,7,8-tetrahydro-5,8-methanocinnolin-8-yl)((S)-2-(methoxymethyl)pyrrolidin-1-yl)methanone] | 2840 |

Now those with a lower IC50, led by results:

| IC50 [nM] | SMILES |
| --- | --- |
| 7 | CCOC(=O)N(CC(F)F)C[C@@]12CC[C@@H](c3cc(-c4c(F)cccc4F)nnc31)C2(C)C [Example 292, ethyl (2,2-difluoroethyl)(((5R,8S)-3-(2,6-difluorophenyl)-9,9-dimethyl-5,6,7,8-tetrahydro-5,8-methanocinnolin-8-yl)methyl)carbamate] |
| 22 | CC1(C)[C@@H]2CC[C@@]1(COCc1ccccc1)c1nnc(-c3c(F)cccc3Cl)cc12 [Example 21, (5S,8S)-8-[(benzyloxy)methyl]-3-(2-chloro-6-fluorohenyl)-9,9-dimethyl-5,6,7,8-tetrahydro-5,8-methanocinnoline] |
| 45 | COC[C@@]12CC[C@@H](c3cc(-c4c(F)cccc4F)nnc31)C2(C)C [Example 30, (5R,8R)-3-(2,6-difluorophenyl)-8-(methoxymethyl)-9,9-dimethyl-5,6,7,8-tetrahydro-5,8-methanocinnoline] |
| 87 | CC1(C)[C@H]2CC[C@]1(C)c1nnc(Oc3c(F)cccc3Cl)cc12 [Example 97, (5R,8S)-3-(2-chloro-6-fluorophenoxy)-8,9,9-trimethyl-5,6,7,8-tetrahydro-5,8-methanocinnoline] |
| 232 | CC1(C)[C@@H]2CC[C@@]1(C(=O)N1CC(n3cccn3)C1)c1nnc(-c3c(F)cccc3F)cc12 [Example 232, (3-(1H-pyrazol-1-yl)azetidin-1-yl)((5S,8S)-3-(2,6-difluorophenyl)-9,9-dimethyl-5,6,7,8-tetrahydro-5,8-methanocinnolin-8-yl)methanone] |
| 126 | CC1(C)[C@H]2CC[C@]1(COc1ccccn1)c1nnc(-c3c(F)cccc3F)cc12 [Example 120, (5R,8R)-3-(2,6-difluorophenyl)-9,9-dimethyl-8-[(pyridin-2-yloxy)methyl]-5,6,7,8-tetrahydro-5,8-methanocinnoline] |
| 28 | CCN(C[C@]12CC[C@H](c3cc(-c4c(F)cccc4F)nnc31)C2(C)C)C(=O)CCC(N)=O [Example 342, N1-(((5S,8R)-3-(2,6-difluorophenyl)-9,9-dimethyl-5,6,7,8-tetrahydro-5,8-methanocinnolin-8-yl)methyl)-N1-ethylsuccinamide] |
| 68 | Cc1ocnc1[C@@]12CC[C@@H](c3cc(-c4c(F)cccc4F)nnc31)C2(C)C [Example 193, 4-((5R,8S)-3-(2,6-difluorophenyl)-9,9-dimethyl-5,6,7,8-tetrahydro-5,8-methanocinnolin-8-yl)-5-methyloxazole] |
| 90 | CC1(C)[C@H]2CC[C@]1(c1cnccn1)c1nnc(-c3c(F)cccc3F)cc12 [Example 161] |
| 345 | CC1(C)[C@@H]2CC[C@@]1(C(=O)N1CC(C#N)C1)c1nnc(-c3c(F)cccc3F)cc12 [Example 259, 1-((5S,8S)-3-(2,6-difluorophenyl)-9,9-dimethyl-5,6,7,8-tetrahydro-5,8-methanocinnoline-8-carbonyl)azetidine-3-carbnitrite] |
| 52 | CN([C@@]12CC[C@@H](c3cc(-c4c(F)cccc4F)nnc31)C2(C)C)S(=O)(=O)C(F)(F)F [Example 319, N-((5R,8R)-3-(2,6-difluorophenyl)-9,9-dimethyl-5,6,7,8-tetrahydro-5,8-methanocinnolin-8-yl)-1,1,1-trifluoro-N-methylmethanesulfonamide] |
| 123 | Cc1cc([C@@]23CC[C@@H](c4cc(-c5c(F)cccc5F)nnc42)C3(C)C)[nH]n1 [Example 191, (5R,8S)-3-(2,6-difluorophenyl)-9,9-dimethyl-8-(3-methyl-1H-pyrazol-5-yl)-5,6,7,8-tetrahydro-5,8-methanocinnoline] |
| 236 | CC1(C)[C@@H]2CC[C@@]1(C(=O)N1CC[C@@H](O)C1)c1nnc(-c3c(F)cccc3F)cc12 [Example 238, ((5S,8S)-3-(2,6-difluorophenyl)-9,9-dimethyl-5,6,7,8-tetrahydro-5,8-methanocinnolin-8-yl)((R)-3-hydroxypyrrolidin-1-yl)methanone] |
